Article PMC8398847, “Isavuconazole: Thermodynamic Evaluation of Processes Sublimation, Dissolution and Partition in Pharmaceutically Relevant Media” (Molecules, 2021)

Test: Dissolution thermodynamics: ideal solubility, activity coefficients at infinite dilution, excess functions
Type: physicochemical
From the text: The temperature dependence of solute solubility is described by the thermodynamic relationship:(26) lnx=lnxid−lnγ=ΔmH/RT[T−Tm/T]+∫TmT∫TmT(CpL−CpS)dT/RT^2−lnγ where x, xid, γ, Tm, ΔmH, ΔCp=CpL−CpS , R, and T represent the solubility mole fraction of the solute in solution, ideal mole fraction solubility of the solute, activity coefficient of the solute in solution, melting temperature of the solute, enthalpy of melting of the pure solute, differential molar heat capacity of the pure solute, gas constant and temperature, respectively. If the solubility or equilibrium mole fraction of a compound in solvents studied is low, it is assumed that the last term in Equation (26) denotes the infinite dilution activity coefficient lnγ^∞, which can be expressed as:(27) lnγ∞=ΔHsolE/RT−ΔSsolE/R where ΔHsolE and ΔSsolE represent the partial molar excess enthalpy, and partial molar excess entropy, respectively, and are assumed to be temperature independent. As the quantity ΔCp is assumed to be negligible and considered to be zero [52], substituting ΔCp = 0 into Equation (26) simplifies to (28) lnxid=−ΔHm/RTmln[Tm/T]

## C[C@@H](c1nc(-c2ccc(C#N)cc2)cs1)[C@](O)(Cn1cncn1)c1cc(F)ccc1F [IVZ, Isavuconazole]
1-octanol, 293.15 K
  lnγ^∞: 2.40
1-octanol, 298.15 K
  G^E: 1.4 ± 0.048 kcal/mol
  H^E: 0.865 ± 0.024 kcal/mol
  S^E: −7.5 ± 0.3 J·mol^−1·K^−1
  TS^E: -0.533 kcal/mol
  lnγ^∞: 2.36
  ςH^E: 61.9%
  ςTS^E: 38.1%
1-octanol, 303.15 K
  lnγ^∞: 2.34
1-octanol, 308.15 K
  lnγ^∞: 2.32
1-octanol, 313.15 K
  lnγ^∞: 2.30
1-propanol, 293.15 K
  lnγ^∞: 2.16
1-propanol, 298.15 K
  G^E: 1.25 ± 0.048 kcal/mol
  H^E: 1.19 ± 0.024 kcal/mol
  S^E: −0.9 ± 0.04 J·mol^−1·K^−1
  TS^E: -0.0669 kcal/mol
  lnγ^∞: 2.12
  ςH^E: 94.7%
  ςTS^E: 5.3%
1-propanol, 303.15 K
  lnγ^∞: 2.09
1-propanol, 308.15 K
  lnγ^∞: 2.06
1-propanol, 313.15 K
  lnγ^∞: 2.03
Buffer pH 1.2, 293.15 K
  lnγ^∞: 11.51
Buffer pH 1.2, 298.15 K
  G^E: 6.84 ± 0.12 kcal/mol
  H^E: -1.54 ± 0.024 kcal/mol
  S^E: −117.5 ± 4.1 J·mol^−1·K^−1
  TS^E: -8.372 kcal/mol
  lnγ^∞: 11.55
  ςH^E: 15.3%
  ςTS^E: 84.7%
Buffer pH 1.2, 303.15 K
  lnγ^∞: 11.59
Buffer pH 1.2, 308.15 K
  lnγ^∞: 11.64
Buffer pH 1.2, 313.15 K
  lnγ^∞: 11.67
Buffer pH 2.0, 293.15 K
  lnγ^∞: 12.82
Buffer pH 2.0, 298.15 K
  G^E: 7.58 ± 0.14 kcal/mol
  H^E: 1.24 ± 0.072 kcal/mol
  S^E: −88.9 ± 5.1 J·mol^−1·K^−1
  TS^E: -6.334 kcal/mol
  lnγ^∞: 12.80
  ςH^E: 16.4%
  ςTS^E: 83.6%
Buffer pH 2.0, 303.15 K
  lnγ^∞: 12.76
Buffer pH 2.0, 308.15 K
  lnγ^∞: 12.72
Buffer pH 2.0, 313.15 K
  lnγ^∞: 12.69
Buffer pH 7.4, 293.15 K
  lnγ^∞: 13.26
Buffer pH 7.4, 298.15 K
  G^E: 7.82 ± 0.14 kcal/mol
  H^E: 1.7 ± 0.024 kcal/mol
  S^E: −85.9 ±2.9 J·mol^−1·K^−1
  TS^E: -6.12 kcal/mol
  lnγ^∞: 13.21
  ςH^E: 21.7%
  ςTS^E: 78.3%
Buffer pH 7.4, 303.15 K
  lnγ^∞: 13.15
Buffer pH 7.4, 308.15 K
  lnγ^∞: 13.11
Buffer pH 7.4, 313.15 K
  lnγ^∞: 13.08
Buffer solutions
  entropy term ζTS^E: > 78%
ethanol, 293.15 K
  lnγ^∞: 2.00
ethanol, 298.15 K
  G^E: 1.15 ± 0.024 kcal/mol
  H^E: 1.72 ± 0.024 kcal/mol
  S^E: 8.0 ± 0.3 J·mol^−1·K^−1
  TS^E: 0.569 kcal/mol
  lnγ^∞: 1.95
  ςH^E: 75.2%
  ςTS^E: 24.8%
ethanol, 303.15 K
  lnγ^∞: 1.91
ethanol, 308.15 K
  lnγ^∞: 1.86
ethanol, 313.15 K
  lnγ^∞: 1.81
hexane, 293.15 K
  lnγ^∞: 7.12
hexane, 298.15 K
  G^E: 4.16 ± 0.072 kcal/mol
  H^E: 3.033 ± 0.024 kcal/mol
  S^E: −15.8 ± 0.4 J·mol^−1·K^−1
  TS^E: -1.13 kcal/mol
  lnγ^∞: 7.03
  ςH^E: 72.9%
  ςTS^E: 27.1%
hexane, 303.15 K
  lnγ^∞: 6.95
hexane, 308.15 K
  lnγ^∞: 6.86
hexane, 313.15 K
  lnγ^∞: 6.79
